Tests used:
[1] = biological target: T1, recombinant PxPP5 (Plutella xylostella, UniProt W0FSW2); assay: Arachidonic acid stimulation assay and kinetics of recombinant PxPP5, pNPP as substrate; assay type: biochemical
T1 sequence (W0FSW2 1-491): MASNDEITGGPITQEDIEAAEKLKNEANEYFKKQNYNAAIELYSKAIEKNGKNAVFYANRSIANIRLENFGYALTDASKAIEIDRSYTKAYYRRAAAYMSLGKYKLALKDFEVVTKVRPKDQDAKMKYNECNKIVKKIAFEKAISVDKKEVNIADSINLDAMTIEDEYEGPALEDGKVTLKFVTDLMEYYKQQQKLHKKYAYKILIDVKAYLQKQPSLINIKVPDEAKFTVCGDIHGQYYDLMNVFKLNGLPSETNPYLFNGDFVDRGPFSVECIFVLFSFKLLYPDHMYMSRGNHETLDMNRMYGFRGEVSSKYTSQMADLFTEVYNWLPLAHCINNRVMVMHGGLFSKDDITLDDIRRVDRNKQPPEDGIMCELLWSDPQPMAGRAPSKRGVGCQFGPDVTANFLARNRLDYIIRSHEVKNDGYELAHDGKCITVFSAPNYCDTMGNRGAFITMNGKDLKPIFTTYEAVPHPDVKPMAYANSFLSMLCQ
Text: (§1) Non-enzyme samples were taken as controls.

[2] = tested on: total crude protein phosphatases; assay: Arachidonic acid stimulation of crude PPP extracts, phosphopeptides as substrate; assay type: biochemical, H. armigera, M. separata and P. xylostella; conditions: larvae extracts of three insects
Protocol: (§2) One gram of 4th instar larvae of each insects were ground into a homogeneous state in ice-cold 20 mM Tris (pH = 7.5), 0.1% β-mercaptoethanol, 1 mM EDTA, 1 mM benzamidine and 1 mM (PMSF). This was then centrifuged at 12,000 g for 30 min at 4°C. The supernatant extract was desalted using Sephadex G-25 spin columns (GE Healthcare, Boston, MA, USA) to remove the contaminating free phosphate as described in the instruction manual. Each insect extract contained three biological replicates. Protein concentration was estimated using the method of Bradford.
(§3) Phosphatases activity of crude extract was determined towards phosphopeptides using PPP assay kit (Promega, Madison, WI, USA) in half-area 96-well plates (Corning, NY, USA) following the manual instruction. In brief, 1.0 µg protein was mixed in assay buffer of 50 mM imidazole (pH 7.2), 0.2 mM EGTA, 0.02% β-mercaptoethanol, 0.1 mg ml^−1 BSA, and pre-warmed to 30°C. Reaction was initiated after adding 100 µM phosphopeptides, RRA(pT)VA to obtain a final volume of 50 µL and incubated at 30°C for 15 min. The reaction was stopped by adding 50 µL of molybdate dye/additive mixture and incubated for an additional 15 min at room temperature for color development. Control samples were determined without enzyme.

[3] = biological target: T2, recombinant HaPP5 (Helicoverpa armigera, UniProt A0A059TAS5); assay: Arachidonic acid stimulation assay and kinetics of recombinant HaPP5, pNPP as substrate; assay type: biochemical
T2 sequence (A0A059TAS5 1-490): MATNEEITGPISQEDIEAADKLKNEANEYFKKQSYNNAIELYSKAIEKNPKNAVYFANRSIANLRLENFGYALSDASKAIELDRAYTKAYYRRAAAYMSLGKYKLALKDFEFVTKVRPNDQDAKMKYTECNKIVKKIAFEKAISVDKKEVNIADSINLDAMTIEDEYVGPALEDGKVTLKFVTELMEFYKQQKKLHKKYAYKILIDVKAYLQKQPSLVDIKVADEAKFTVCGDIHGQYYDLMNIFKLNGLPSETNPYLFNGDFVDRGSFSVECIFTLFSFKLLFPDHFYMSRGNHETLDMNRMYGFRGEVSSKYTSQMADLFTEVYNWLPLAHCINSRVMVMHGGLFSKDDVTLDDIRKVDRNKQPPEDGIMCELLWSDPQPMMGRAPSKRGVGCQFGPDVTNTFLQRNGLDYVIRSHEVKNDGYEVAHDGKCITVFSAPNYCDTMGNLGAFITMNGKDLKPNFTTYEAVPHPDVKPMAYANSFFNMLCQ
Text: as §1

[4] = tested on: E. coli expressed PP5 from P. falciparum; design: method as in PMID 11897131; conditions: cited from earlier work
[5] = tested on: E. coli expressed PP5 from T. brucei; design: method as in PMID 11290414; conditions: cited from earlier work
[6] = tested on: E. coli expressed PP5 from E. chinensis; design: method as in PMID 24351830; conditions: cited from earlier work
[7] = biological target: T3, recombinant MsPP5 (Mythimna separata, UniProt A0A059TAW5); assay: Arachidonic acid stimulation assay and kinetics of recombinant MsPP5, pNPP as substrate; assay type: biochemical
T3 sequence (A0A059TAW5 1-490): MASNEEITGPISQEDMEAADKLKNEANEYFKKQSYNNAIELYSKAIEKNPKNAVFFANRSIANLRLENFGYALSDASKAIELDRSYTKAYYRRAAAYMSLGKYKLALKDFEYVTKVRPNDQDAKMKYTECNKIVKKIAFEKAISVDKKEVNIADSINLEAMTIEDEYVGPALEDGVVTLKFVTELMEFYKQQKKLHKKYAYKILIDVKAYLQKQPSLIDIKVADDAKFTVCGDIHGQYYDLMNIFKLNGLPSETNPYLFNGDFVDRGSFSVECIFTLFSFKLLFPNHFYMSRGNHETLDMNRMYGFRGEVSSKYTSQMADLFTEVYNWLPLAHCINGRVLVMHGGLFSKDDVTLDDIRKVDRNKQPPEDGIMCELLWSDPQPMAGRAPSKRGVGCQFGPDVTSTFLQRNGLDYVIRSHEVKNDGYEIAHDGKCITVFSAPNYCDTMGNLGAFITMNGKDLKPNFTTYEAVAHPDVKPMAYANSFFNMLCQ
Text: as §1

[8] = biological target: T3, recombinant MsPP5; assay: Inhibition assay of recombinant MsPP5 phosphatase activity, pNPP as substrate; assay type: biochemical
Protocol: as §1
(§4) Three candidate inhibitors were dissolved in dimethyl sulphoxide (DMSO) to provide stock solutions of 10 mM for okadaic acid, 100 mM for cantharidin, and 200 mM for endothall, respectively. All solutions were diluted to the desired concentrations with assay buffer before use. Assays were carried out using pNPP as substrate for purified proteins or using RRA(pT)VA as substrate for crude PPP extract. Before initiating the reaction, the enzyme was incubated with the chemicals for 5 min at room temperature. A dose-response assay was used to determine the IC50 values. The non-enzyme reaction was taken as the background control, while the non-inhibitor reaction was used as the full-activity control.

[9] = tested on: crude PPP extracts; assay: Inhibition of phosphatase activity of crude PPP extracts, phosphopeptide RRA(pT)VA as substrate; assay type: biochemical, H. armigera, M. separata and P. xylostella; conditions: treated with 1.0 µM inhibitor, range over three insect extracts
Protocol: as §2, §3, §4

[10] = biological target: T2, recombinant HaPP5; assay: Inhibition assay of recombinant HaPP5 phosphatase activity, pNPP as substrate; assay type: biochemical
Protocol: as §1, §4

[11] = tested on: E. chinensis PP5; design: method as in PMID 24351830; conditions: cited from earlier work
[12] = biological target: T1, recombinant PxPP5; assay: Inhibition assay of recombinant PxPP5 phosphatase activity, pNPP as substrate; assay type: biochemical
Protocol: as §1, §4

[13] = tested on: three lepidopteran PP5 proteins; assay: Inhibition of the three recombinant lepidopteran PP5 proteins (stated jointly), pNPP as substrate; assay type: biochemical, H. armigera, M. separata and P. xylostella; conditions: range over HaPP5, MsPP5 and PxPP5
Protocol: as §1, §4

[14] = substrate: O=[N+]([O-])c1ccc(OP(=O)(O)O)cc1; assay: purified protein, by the assay type; conditions: pH 7.5; 30.0 °C
[15] = 0.25 h, up to, dose dependent, maximum activation at 150 µM
[16] = addition of 150 µM arachidonic acid
[17] = up to, dose dependent, maximum activation at 150 µM, 15 min, 150 µM

CCCCC/C=C\C/C=C\C/C=C\C/C=C\CCCC(=O)O [arachidonic acid]
maximal fold induction at 150 µM [1, 15]: ~2
Elevation of Vmax value of PxPP5 [1, 16]: 1.26 fold
Reduction of Km value of PxPP5 [1, 16]: 2.16 fold
Stimulation of activity of recombinant PxPP5 [1, 17]: ≤ 1.81 fold
Stimulation of phosphatase activity of total crude extracts [2]: no significant stimulation
maximal fold induction at 150 µM [3, 15]: ~2
Elevation of Vmax value of HaPP5 [3, 16]: 1.33 fold
Reduction of Km value of HaPP5 [3, 16]: 2.07 fold
Stimulation of activity of recombinant HaPP5 [3, 17]: up to 1.78 fold
Maximum activation of E. coli expressed PP5 from P. falciparum [4]: 2.0 fold
Maximum activation of E. coli expressed PP5 from T. brucei [5]: 2.6 fold
Maximum activation of E. coli expressed PP5 from E. chinensis [6]: 2.3 fold
maximal fold induction at 150 µM [7, 15]: ~2
Elevation of Vmax value of MsPP5 [7, 16]: 1.54 fold
Reduction of Km value of MsPP5 [7, 16]: 1.86 fold
Stimulation of activity of recombinant MsPP5 [7, 17]: ≤ 1.99 fold

C=C1[C@@H](O)[C@@H]2O[C@]3(CC[C@H](/C=C/[C@@H](C)[C@@H]4CC(C)=C[C@@]5(O[C@H](C[C@@](C)(O)C(=O)O)CC[C@H]5O)O4)O3)CC[C@H]2O[C@@H]1[C@@H](O)C[C@H](C)[C@H]1O[C@@]2(CCCCO2)CC[C@H]1C [okadaic acid]
IC50 [8]: 17.6 ± 3.2 nM
Residual phosphatase activities of the three crude extracts [9]: 16.37–18.89%
IC50 [10]: 41.8 ± 3.31 nM
IC50 [11]: 190 nM
IC50 [12]: 25 ± 1.64 nM

C[C@@]12C(=O)OC(=O)[C@]1(C)[C@H]1CC[C@@H]2O1 [cantharidin]
IC50 [13]: 730 to 2380 nM
IC50 [8]: 2380 ± 480 nM
Residual phosphatase activities of the three crude extracts [9]: 57.65–61.23%
IC50 [10]: 1280 ± 310 nM
IC50 [12]: 730 ± 270 nM

O=C(O)[C@@H]1[C@H](C(=O)O)[C@H]2CC[C@@H]1O2 [endothall]
IC50 [8]: 12600 ± 1620 nM
Residual phosphatase activities of the three crude extracts [9]: 83.77–87.66%
IC50 [10]: 19300 ± 2340 nM
IC50 [12]: 6840 ± 470 nM

B1: MsPP5 (Mythimna separata) (protein)
chain: MASNEEITGPISQEDMEAADKLKNEANEYFKKQSYNNAIELYSKAIEKNPKNAVFFANRSIANLRLENFGYALSDASKAIELDRSYTKAYYRRAAAYMSLGKYKLALKDFEYVTKVRPNDQDAKMKYTECNKIVKKIAFEKAISVDKKEVNIADSINLEAMTIEDEYVGPALEDGVVTLKFVTELMEFYKQQKKLHKKYAYKILIDVKAYLQKQPSLIDIKVADDAKFTVCGDIHGQYYDLMNIFKLNGLPSETNPYLFNGDFVDRGSFSVECIFTLFSFKLLFPNHFYMSRGNHETLDMNRMYGFRGEVSSKYTSQMADLFTEVYNWLPLAHCINGRVLVMHGGLFSKDDVTLDDIRKVDRNKQPPEDGIMCELLWSDPQPMAGRAPSKRGVGCQFGPDVTSTFLQRNGLDYVIRSHEVKNDGYEIAHDGKCITVFSAPNYCDTMGNLGAFITMNGKDLKPNFTTYEAVAHPDVKPMAYANSFFNMLCQ
Km [14]: 9.01 ± 0.51 mM

B2: PxPP5 (Plutella xylostella) (protein)
chain: MASNDEITGGPITQEDIEAAEKLKNEANEYFKKQNYNAAIELYSKAIEKNGKNAVFYANRSIANIRLENFGYALTDASKAIEIDRSYTKAYYRRAAAYMSLGKYKLALKDFEVVTKVRPKDQDAKMKYNECNKIVKKIAFEKAISVDKKEVNIADSINLDAMTIEDEYEGPALEDGKVTLKFVTDLMEYYKQQQKLHKKYAYKILIDVKAYLQKQPSLINIKVPDEAKFTVCGDIHGQYYDLMNVFKLNGLPSETNPYLFNGDFVDRGPFSVECIFVLFSFKLLYPDHMYMSRGNHETLDMNRMYGFRGEVSSKYTSQMADLFTEVYNWLPLAHCINNRVMVMHGGLFSKDDITLDDIRRVDRNKQPPEDGIMCELLWSDPQPMAGRAPSKRGVGCQFGPDVTANFLARNRLDYIIRSHEVKNDGYELAHDGKCITVFSAPNYCDTMGNRGAFITMNGKDLKPIFTTYEAVPHPDVKPMAYANSFLSMLCQ
Km [14]: 8.83 ± 0.75 mM

B3: HaPP5 (Helicoverpa armigera) (protein)
chain: MATNEEITGPISQEDIEAADKLKNEANEYFKKQSYNNAIELYSKAIEKNPKNAVYFANRSIANLRLENFGYALSDASKAIELDRAYTKAYYRRAAAYMSLGKYKLALKDFEFVTKVRPNDQDAKMKYTECNKIVKKIAFEKAISVDKKEVNIADSINLDAMTIEDEYVGPALEDGKVTLKFVTELMEFYKQQKKLHKKYAYKILIDVKAYLQKQPSLVDIKVADEAKFTVCGDIHGQYYDLMNIFKLNGLPSETNPYLFNGDFVDRGSFSVECIFTLFSFKLLFPDHFYMSRGNHETLDMNRMYGFRGEVSSKYTSQMADLFTEVYNWLPLAHCINSRVMVMHGGLFSKDDVTLDDIRKVDRNKQPPEDGIMCELLWSDPQPMMGRAPSKRGVGCQFGPDVTNTFLQRNGLDYVIRSHEVKNDGYEVAHDGKCITVFSAPNYCDTMGNLGAFITMNGKDLKPNFTTYEAVPHPDVKPMAYANSFFNMLCQ
Km [14]: 8.64 ± 0.95 mM
